In patent publication US7524975B2, “Peroxisome proliferator activated receptor ligand and process for producing the same” (Kaneka Corporation, priority 2001, dated 2009):

Target: T1, mouse PPARγ ligand-binding site (Mus musculus, UniProt P37238)
T1 construct: expressed in transfected cells; host or cells: CV-1 cells (African green monkey kidney)
T1 sequence (P37238 174-475 isoform P37238-2): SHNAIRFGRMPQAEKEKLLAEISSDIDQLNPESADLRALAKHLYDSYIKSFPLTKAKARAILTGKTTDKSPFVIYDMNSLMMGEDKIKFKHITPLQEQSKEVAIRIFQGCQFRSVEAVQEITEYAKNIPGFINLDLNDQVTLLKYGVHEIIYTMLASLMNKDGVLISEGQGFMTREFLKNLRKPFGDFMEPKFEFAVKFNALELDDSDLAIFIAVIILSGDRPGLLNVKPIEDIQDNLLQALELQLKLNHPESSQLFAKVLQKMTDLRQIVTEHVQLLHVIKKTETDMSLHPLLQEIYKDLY
Assay: Measurement of PPARγ ligand activity (GAL4 chimera luciferase reporter in CV-1 cells)
Assay type: cell-based
Details: for PPARγ ligand activity: CV-1 cells, 24 hours, specific activity relative to untreated control (DMSO) = 1.00; for PPARγ ligand activity compared with positive control troglitazone (in words): compared with 0.5 μM troglitazone
Method: CV-1 cells (cultured cells derived from the kidney of a male African green monkey) were inoculated on a 96-well culture plate in a concentration of 6×10^3 cells/well and incubated at 37° C. in 5% CO2 for 24 hours. The medium used was DMEM (Dulbecco's Modified Eagle Medium: GIBCO) containing 10% FBS (fetal bovine serum), 10 ml/L penicillin and streptomycin solution (containing 5000 IU/ml and 5,000 μg/ml, respectively: GIBCO) and 37 mg/L ascorbic acid (Wako Pure Chemical Industries, Ltd.). […] 4xUASg-luc is a reporter plasmid comprising four GAL4 response sequences (UASg) integrated into a region upstream of a luciferase gene. At about 24 hours after transfection, the medium was exchanged with a sample-containing medium, and the cells were cultured for 24 hours (n=4). The sample-containing medium was prepared by dissolving a sample in dimethyl sulfoxide (DMSO) in an amount of 1/1000 based on the medium, while for the untreated control, DMSO in an amount of 1/1000 based on the medium was used in place of the sample. After the cells were washed with a Ca- and Mg-containing phosphate buffered physiological saline (PBS+), LucLite (Packard) was added thereto, and the intensity of luciferase luminescence was measured with a TopCount microplate scintillation/luminescence counter (Packard).
As the control group, pM (plasmid from which the PPARγ ligand-binding site gene was removed) was measured in place of pM-mPPARγ in the same manner as for the measurement group. For each sample, the ratio (measurement group/control group) of the average luminescence intensity of the measurement group (n=4) to that of the control group was calculated, and the specific activity relative to the activity of the untreated control was regarded as the PPARγ ligand activity of the sample.

Row | SMILES | PPARγ ligand activity (added concentration 2 μg/ml) | PPARγ ligand activity (added concentration 5 μg/ml) | PPARγ ligand activity (added concentration 10 μg/ml) | PPARγ ligand activity compared with positive control troglitazone (in words)
1 | COc1ccc(C2COc3c(ccc4c3C=CC(C)(C)O4)C2)c(O)c1O (centres unmarked) [Compound 22, 3′-Hydroxyl-4′-O-methylglabridin] | 1.61 | 2.46 | 1.69 | –
2 | O=c1c(O)c(-c2ccc(O)c(O)c2)oc2cc(O)cc(O)c12 [Quercetin, quercetin, reference compound] | 1.15 | 1.72 | 1.70 | not recognized to have a PPARγ ligand activity
3 | COc1cc(O)cc2c1C(=O)C(c1cc(O)c3c(c1)C=CC(C)(C)O3)CO2 (centres unmarked) [Compound 9, Glycyrrhisoflavanone] | 2.01 | 3.45 | 4.68 | –
4 | CC(C)=CCc1cc(-c2coc3c(CC=C(C)C)c(O)cc(O)c3c2=O)cc(O)c1O [Compound 3, Glyurallin B] | 1.28 | 1.96 | 2.73 | –
5 | COc1c(/C=C/C(=O)c2ccc(O)cc2)ccc(O)c1CC=C(C)C [Compound 26, Licochalcone C] | 1.84 | 2.20 | 3.71 | –
6 | COc1c(-c2ccc(O)cc2)oc2cc(O)c(CC=C(C)C)c(O)c2c1=O [Compound 16, Topazolin] | 2.56 | 3.64 | 5.84 | –
7 | C=CC(C)(C)c1cc(/C=C/C(=O)c2ccc(O)cc2)c(OC)cc1O [Compound 24, Licochalcone A] | 4.02 | 4.14 | 4.16 | –
8 | CC(C)=CCc1cc([C@@H]2CC(=O)c3ccc(O)c(CC=C(C)C)c3O2)ccc1O [Compound 23, Glabrol] | 1.85 | 3.48 | 3.74 | –
9 | CC1(C)C=Cc2cc(-c3coc4cc(O)cc(O)c4c3=O)cc(O)c2O1 [Compound 12, Semilicoisoflavone B] | 1.86 | 2.66 | 3.15 | –
10 | COc1c2c(cc(O)c1CC=C(C)C)OCC(c1ccc(O)cc1O)=C2 [Compound 7, Dehydroglyasperin C] | 2.90 | 3.73 | 4.41 | –
11 | CC(C)=CCc1cc(C(=O)CC(=O)c2cc(CC=C(C)C)c(O)cc2O)ccc1O [Compound 27, Glycyrdione A] | 1.44 | 2.49 | 3.05 | –
12 | CC1(C)C=Cc2c(ccc(C3COc4c(ccc5c4C=CC(C)(C)O5)C3)c2O)O1 (centres unmarked) [Compound 20, Hispaglabridin B] | 1.04 | 1.45 | 1.94 | slightly weaker than that of a positive control containing 0.5 μM troglitazone
13 | COc1c(CC=C(C)C)c(O)cc2oc(=O)c(-c3ccc(O)cc3O)cc12 [Compound 1, Glycycoumarin] | 2.03 | 2.79 | 3.82 | –
14 | CC1(C)C=Cc2c(ccc3c2OC[C@@H](c2ccc(O)cc2O)C3)O1 [Compound 18, Glabridin] | 1.64 | 2.15 | 1.98 | –
15 | CC(C)=CCc1cc(-c2coc3cc(O)cc(O)c3c2=O)cc(O)c1O [Compound 17, Glycyrrhisoflavone] | 1.78 | 3.05 | 3.20 | –
16 | CC1(C)[C@@H](O)CC[C@]2(C)[C@H]3C(=O)C=C4[C@@H]5C[C@@](C)(C(=O)O)CC[C@]5(C)CC[C@@]4(C)[C@]3(C)CC[C@@H]12 [Glycyrrhetinic acid, glycyrrhetinic acid, reference compound] | 0.97 | 0.95 | 0.97 | not recognized to have a PPARγ ligand activity
17 | COc1cc2c(c(O)c1CC=C(C)C)C(=O)C(c1ccc(O)cc1O)CO2 (centres unmarked) [Compound 8, Glyasperin B] | 2.60 | 3.53 | 3.02 | –
18 | COc1cc2c(c(OC)c1CC=C(C)C)CC(c1ccc(O)cc1O)CO2 (centres unmarked) [Compound 11, Glyasperin D] | 3.22 | 3.28 | 4.06 | –
19 | COc1c(/C=C/C(=O)c2ccc(O)cc2)ccc(O)c1O [Compound 25, Licochalcone B] | 1.27 | 1.93 | 1.61 | slightly weaker than that of a positive control containing 0.5 μM troglitazone
20 | CC1(C)C=Cc2c(O)ccc(C3=Cc4ccc(O)cc4OC3)c2O1 [Compound 19, Glabrene] | 1.78 | 3.44 | 2.89 | –
21 | COc1ccc(C2COc3c(ccc4c3C=CC(C)(C)O4)C2)c(O)c1 (centres unmarked) [Compound 21, 4′-O-Methylglabridin] | 1.25 | 1.55 | 2.13 | –
22 | CC(C)=CCc1cc(C(=O)CC(=O)c2cc3c(cc2O)OC(C)(C)C=C3)ccc1O [Compound 28, Glycyrdione C] | 0.96 | 1.48 | 2.04 | slightly weaker than that of a positive control containing 0.5 μM troglitazone
23 | COc1c(-c2ccc(O)cc2)oc2cc(O)cc(O)c2c1=O [Compound 14, Kaempferol3-O-methylester] | 1.86 | 2.37 | 3.47 | –
24 | CC(C)=CCc1c(O)cc2oc(-c3ccc(O)cc3)c(O)c(=O)c2c1O [Compound 15, Licoflavonol] | 1.44 | 2.27 | 4.07 | –
25 | CC(C)=CCc1c(O)cc(O)c2c(=O)c(-c3ccc(O)cc3)coc12 [Compound 10, Lupiwighteone] | 1.67 | 2.53 | 3.75 | –
26 | COc1cc(O)ccc1/C=C/C(=O)c1ccc(O)cc1 [Compound 5, Echinatin] | 1.45 | 2.35 | 2.49 | –
27 | O=C(/C=C/c1ccc(O)cc1)c1ccc(O)cc1O [Compound 13, Isoliquiritigenin] | 1.47 | 2.71 | 3.39 | –
28 | CC(C)=CCc1cc(-c2oc3cc(O)cc(O)c3c(=O)c2O)ccc1O [Compound 6, Isolicoflavonol] | 1.73 | 2.50 | 3.82 | –
29 | COc1cc2c(c(OC)c1CC=C(C)C)C=C(c1ccc(O)cc1O)CO2 [Compound 4, 3-(2′,4′-dihydroxyphenyl)-6-(3″,3″-dimethylallyl)-5,7-dimethoxy-2H-chromene] | 2.95 | 3.72 | 4.00 | –
